Results published in US8986758B2, “Method for extracting a traditional herbal medicine component using a polished-rice steaming method” (Amorepacific Corporation, priority 2009, dated 2015).

Key:
skin = assay: Irritation test on panels sensitive to irritation; type: in vivo
Description: Particularly, 15 panels sensitive to irritation, such as stinging, burning, etc., are subjected to a test for determining irritation feeling, including stinging, itch and dazzling. […] The results are shown in the following Table 2. <Evaluation Criteria> 0-0.4: No irritation 0.5-1.0: slight irritation 1.1-2.0: mild irritation 2.1-3.0: severe irritation

[1] = test system: C57BL/6 mouse-derived pigment cells (Mel-Ab cells); assay: Effect of inhibiting melanin production using mouse pigment cells (Dooley's method); type: cell-based; conditions: 72 h, each sample at 10 ppm, Mel-Ab cells cultured 3 days, absorbance at 400 nm
Procedure: C57BL/6 mouse-derived pigment cells (Mel-Ab cells) (Dooley, T. P. et al., Skin pharmacol, 7, pp. 188-200) are cultured in a DMEM ([…]), to which 10% fetal bovine serum, 100 nM 12-O-tetradecanoylphorbol-13-acetate and 1 nM cholera toxin are added, at 37° C. under 5% CO2. The cultured Mel-Ab cells are released by using 0.25% trypsin-EDTA and incubated on a 24-well plate at a concentration of 10^5 cells/well. From the next day, each test sample is added to culture the cells continuously for 3 days.
The test samples used herein include hydroquinone, the extract of traditional herbal medicine of Comparative Example 1 and the extract of traditional herbal medicine obtained by polished-rice steaming method according to Example 1. Each sample is used at a concentration of 10 ppm. Hydroquinone is used as a positive control. Then, the culture medium is removed and the cells are washed with phosphate buffered saline (PBS). The cells are subjected to cell lysis using 1N sodium hydroxide and absorbance is determined at 400 nm. The absorbance measurement is used to calculate % inhibition of melanin production according to the following Mathematical Formula 1. The results are shown in the following Table 1 (Dooley's method). % Inhibition of melanin production=100−{(absorbance of each sample/absorbance of control)×100} [Mathematical Formula 1]

[2] = grade 0 to 3.0, 0.5 mL applied onto skin, 15 panels, 0-0.4 no, 0.5-1.0 slight, 1.1-2.0 mild, 2.1-3.0 severe irritation

Row | SMILES | Average (skin; average of stinging and burning grades, grade 0 to 3.0, 0-0.4 no, 0.5-1.0 slight irritation) | Burning (skin; [2]) | Stinging (skin; [2]) | irritation (in words) (skin; summary of Table 2, 0.5 mL applied onto skin) | inhibition at 10 ppm [1] [%]
1 | O=c1cc(CO)occ1O [Kojic acid, kojic acid] | 0.68 | 0.50 | 0.85 | perceptible degree of irritation | –
2 | Oc1ccc(O)cc1 [Hydroquinone, hydroquinone] | – | – | – | – | 58.9
